The text below walks through data of PubChem BioAssay (NCI).

Each structure is given as a SMILES string.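 Step 1: Grow cells in 96-well plates. Step 2: Expose to compound for 48 hours at 5 concentrations. Step 3: Interpolate endpoints linearly; if unreached, use highest concentration. The concentration for 50% growth inhibition is given as GI50. The concentration for full growth arrest is given as TGI.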

The subject of the first assay is COLO 205 colon. The experiment in a line: NCI-60 cell line screen, 48 h.
Turning to `COc1ccc(-c2nc(Nc3cc(C)[nH]n3)c3ccccc3n2)cc1`, the GI50 is 1.5 µM and the TGI is 3.61 µM.
`O=C1OC(=O)C(=C\c2ccc3c(c2)OCO3)/C1=C/c1ccc2c(c1)OCO2` came in with a TGI of more than 100 µM.
As to `CC(C)NCCCn1c(Sc2cc3c(cc2I)OCO3)nc2c(N)ncnc21`, the GI50 was 0.0477 µM and the TGI amounted to 10.8 µM.
`CN1C(=O)N(C)C2C1NN=c1s/c(=C\c3ccc(C(F)(F)F)cc3)c(=O)n12` (centres undefined): the GI50 was 0.776 µM and the TGI came out at 4.72 µM.
As to `N#Cc1c(N2CCOCC2)nc(=S)[nH]c1-c1ccco1`, the GI50 was 5.7 µM and the TGI was 70.3 µM.
Take `C[C@@H]1CN(Cc2ccc(F)cc2)[C@@H](C)CN1C(=O)c1cc2c(C(=O)C(=O)N(C)C)cn(C)c2cc1Cl`: the GI50 was 7.66 µM and the TGI was determined as 25.4 µM.
With `COc1ccccc1-c1cc(=O)c2cc(C)cnc2[nH]1`, the TGI is 52.5 µM.
On to `O=[N+]([O-])c1ccc(C=Cc2ccccc2)cc1.[C-]#[O+].[C-]#[O+].[C-]#[O+].[Cr]`, for which the GI50 was 23.9 µM and the TGI is more than 100 µM.

The test system of another assay is HL-60(TB) leukemia. The experiment in a line: NCI-60 cell line screen, 48 h.
Turning to `CN[C@@H](C)C(=O)N[C@H](C(=O)N1CCC[C@H]1C(=O)Nc1sc(-c2ncco2)nc1-c1ccccc1)C1CCCCC1`, the GI50 was 16.9 µM and the TGI amounted to 39.1 µM.
On to `CC1=C2[C@@H](CC1)[C@]1(C)O[C@@](c3ccccc3)(C[C@H]1OC(=O)CO)[C@H]2OC(=O)/C=C/c1ccccc1`, for which the GI50 is 7.43 µM and the TGI worked out at 27.4 µM.
Turning to `NC(=O)c1csc(C2OC(CO)C(O)C2O)n1` (centres undefined), the GI50 is 36.5 µM and the TGI came to 3330 µM.
Consider `CCCN(CCS(C)(=O)=O)Cc1ccc(-c2ccc3ncnc(Nc4ccc(OCc5cccc(F)c5)c(Cl)c4)c3c2)o1`, for which the GI50 is 8.14 µM and the TGI was more than 25 µM.
The matching figures for `CC(C)C[C@H](NC(=O)CNC(=O)c1cc(Cl)ccc1Cl)B1OC(=O)CC(CC(=O)O)(C(=O)O)O1` (some centres undefined): 0.0533 µM and more than 100 µM.
Regarding `OCC12C3C4C5C3C1C5C42` (centres undefined), the TGI was more than 100 µM.
On to `CCc1ccc2c(c1)N(CCO)C1=C(C(=O)OC1)C2c1cccc(Br)c1` (centres undefined), for which the GI50 is 0.317 µM and the TGI was 2.21 µM.
The matching figures for `COc1ccc(-c2nc(Nc3cc(C)[nH]n3)c3ccccc3n2)cc1`: 1.58 µM and more than 35.2 µM.
Take `O=C1OC(=O)C(=C\c2ccc3c(c2)OCO3)/C1=C/c1ccc2c(c1)OCO2`: the TGI was more than 88.1 µM.
Turning to `CC(C)NCCCn1c(Sc2cc3c(cc2I)OCO3)nc2c(N)ncnc21`, the GI50 was 0.0637 µM and the TGI is 6.91 µM.
As to `CN1C(=O)N(C)C2C1NN=c1s/c(=C\c3ccc(C(F)(F)F)cc3)c(=O)n12` (centres undefined), the GI50 was 0.413 µM and the TGI was determined as 18.6 µM.
For the compound `N#Cc1c(N2CCOCC2)nc(=S)[nH]c1-c1ccco1`, the GI50 was 4.26 µM and the TGI is more than 100 µM.
Regarding `C[C@@H]1CN(Cc2ccc(F)cc2)[C@@H](C)CN1C(=O)c1cc2c(C(=O)C(=O)N(C)C)cn(C)c2cc1Cl`, the GI50 was 23.5 µM and the TGI was 63.2 µM.
As for `COc1ccccc1-c1cc(=O)c2cc(C)cnc2[nH]1`, the GI50 is 9.53 µM and the TGI came out at 76.2 µM.
For the compound `O=[N+]([O-])c1ccc(C=Cc2ccccc2)cc1.[C-]#[O+].[C-]#[O+].[C-]#[O+].[Cr]`, the GI50 was 5.2 µM and the TGI is more than 100 µM.

The subject of a further assay is MDA-MB-435. The assay is described as follows: NCI-60 cell line screen, 48 h.
As to `CN[C@@H](C)C(=O)N[C@H](C(=O)N1CCC[C@H]1C(=O)Nc1sc(-c2ncco2)nc1-c1ccccc1)C1CCCCC1`, the GI50 is 26.3 µM and the TGI was more than 87.9 µM.
For `CC1=C2[C@@H](CC1)[C@]1(C)O[C@@](c3ccccc3)(C[C@H]1OC(=O)CO)[C@H]2OC(=O)/C=C/c1ccccc1`, the GI50 is 16.2 µM and the TGI was 35.9 µM.
For the compound `NC(=O)c1csc(C2OC(CO)C(O)C2O)n1` (centres undefined), the GI50 is 43.7 µM and the TGI was more than 4870 µM.
`CCCN(CCS(C)(=O)=O)Cc1ccc(-c2ccc3ncnc(Nc4ccc(OCc5cccc(F)c5)c(Cl)c4)c3c2)o1`: the GI50 was more than 25 µM and the TGI was more than 25 µM.
As for `CC(C)C[C@H](NC(=O)CNC(=O)c1cc(Cl)ccc1Cl)B1OC(=O)CC(CC(=O)O)(C(=O)O)O1` (some centres undefined), the GI50 was 0.0222 µM and the TGI amounted to 0.0612 µM.
For the compound `OCC12C3C4C5C3C1C5C42` (centres undefined), the TGI is more than 100 µM.
For `CCc1ccc2c(c1)N(CCO)C1=C(C(=O)OC1)C2c1cccc(Br)c1` (centres undefined), the GI50 is 0.0979 µM and the TGI was 0.521 µM.
Taken in the same sequence, the figures for `COc1ccc(-c2nc(Nc3cc(C)[nH]n3)c3ccccc3n2)cc1` were 1.3 µM and more than 100 µM.
With `O=C1OC(=O)C(=C\c2ccc3c(c2)OCO3)/C1=C/c1ccc2c(c1)OCO2`, the TGI was more than 100 µM.
With `CC(C)NCCCn1c(Sc2cc3c(cc2I)OCO3)nc2c(N)ncnc21`, the GI50 is 0.0919 µM and the TGI was 42 µM.
The matching figures for `CN1C(=O)N(C)C2C1NN=c1s/c(=C\c3ccc(C(F)(F)F)cc3)c(=O)n12` (centres undefined): 0.312 µM and 1.34 µM.
As to `N#Cc1c(N2CCOCC2)nc(=S)[nH]c1-c1ccco1`, the GI50 is 15.9 µM and the TGI was more than 100 µM.
As to `C[C@@H]1CN(Cc2ccc(F)cc2)[C@@H](C)CN1C(=O)c1cc2c(C(=O)C(=O)N(C)C)cn(C)c2cc1Cl`, the GI50 is 15 µM and the TGI was determined as 35.1 µM.
`COc1ccccc1-c1cc(=O)c2cc(C)cnc2[nH]1` registered a TGI of 27.3 µM.
Turning to `O=[N+]([O-])c1ccc(C=Cc2ccccc2)cc1.[C-]#[O+].[C-]#[O+].[C-]#[O+].[Cr]`, the GI50 was 4.81 µM and the TGI is more than 100 µM.
